The experiment has as its target T1, BRAF (Homo sapiens, UniProt P15056).
T1 construct: purchased Thermo Fisher Scientific (Life Technologies) SelectScreen
Nature of the experiment: SelectScreen Z'LYTE. Format: biochemical. The following applies: ATP 100 µM. In short, it runs like this:
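NU5455 was profiled across the SelectScreen Broad panel of kinase activity and binding assays. Z'LYTE reactions such as CSF1R ran at apparent Km ATP, while the Adapta CAMK1 assay used ATP listed as 10. Values are given as percent.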

This passage reports inhibition results from PMC6934184, “Selective DNA-PKcs inhibition extends the therapeutic index of localized radiotherapy and chemotherapy” (The Journal of Clinical Investigation, 2019).

In general, inhibition refers to the drop in the measured response relative to a control, in per cent.

T1 sequence (P15056 whole entry): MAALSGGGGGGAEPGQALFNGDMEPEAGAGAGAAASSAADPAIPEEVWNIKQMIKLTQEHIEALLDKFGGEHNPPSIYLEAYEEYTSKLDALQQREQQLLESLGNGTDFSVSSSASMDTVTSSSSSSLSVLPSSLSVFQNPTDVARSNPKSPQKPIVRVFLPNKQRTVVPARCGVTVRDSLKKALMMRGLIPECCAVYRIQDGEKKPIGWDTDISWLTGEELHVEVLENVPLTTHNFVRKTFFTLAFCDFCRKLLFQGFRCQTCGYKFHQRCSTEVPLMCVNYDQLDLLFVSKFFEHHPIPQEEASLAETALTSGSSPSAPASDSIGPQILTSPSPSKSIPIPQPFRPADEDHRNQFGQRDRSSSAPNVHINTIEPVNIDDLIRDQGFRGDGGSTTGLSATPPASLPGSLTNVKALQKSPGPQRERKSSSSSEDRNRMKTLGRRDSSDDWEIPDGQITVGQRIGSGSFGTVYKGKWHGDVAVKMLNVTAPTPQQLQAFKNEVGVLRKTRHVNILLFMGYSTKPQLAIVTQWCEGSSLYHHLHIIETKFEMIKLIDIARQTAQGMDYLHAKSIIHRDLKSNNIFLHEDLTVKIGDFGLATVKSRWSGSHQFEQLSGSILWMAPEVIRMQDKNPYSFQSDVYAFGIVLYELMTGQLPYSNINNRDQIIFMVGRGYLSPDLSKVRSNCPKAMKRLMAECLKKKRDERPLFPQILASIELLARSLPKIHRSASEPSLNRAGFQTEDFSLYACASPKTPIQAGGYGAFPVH

In turn, `CN(C(=O)CN1CCOCC1)c1ccc2sc3c(-c4cccc5c(=O)cc(N6CC7CCC(C6)O7)oc45)cccc3c2c1` [NU5455] displayed an inhibition at 1 µM of 9.9%.
